Values of other authors as cited in patent publication US20250234859A1, “AQUEOUS SUSPENSION AGROCHEMICAL COMPOSITION, DISEASE CONTROL METHOD, AND USEFUL PLANT SEEDS” (KUMIAI CHEMICAL INDUSTRY CO., LTD., priority 2021, published 2025).

Tested on: rice blast, glume blotch, cucumber downy mildew, and cucumber anthracnose
Conditions: diseases such as rice blast, Patent Document 3

Compound: O=S1(=O)N=C(OCc2snc(Cl)c2Cl)c2ccccc21 [dichlobentiazox, 3-(3,4-dichloroisothiazol-5-ylmethoxy)-1,2-benzothiazole-1,1-dioxide]
- effect on plant diseases: remarkable effect
